US12012398B2, “Bicyclic compounds as androgen receptor modulators” (NIDO BIOSCIENCES, INC., priority 2021, dated 2024)

test system: LNCaP cells expressing ARR2PB-FireflyLuc and CMV-RenillaLuc; experiment: LNCaP ARR2PB-FireflyLuc reporter assay, antagonist mode; format: cell-based; conditions: Homo sapiens, LNCaP, 48 h, +0.5 nM DHT, 48 h at 37° C., read-out: LNCap Antagonist Archive: IC50;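 note: IC50 bins in nM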
Procedure: LNCaP cells expressing ARR2PB-FireflyLuc and CMV-RenillaLuc were treated with indicated concentrations of test compounds, enzalutamide (negative control), or DHT (positive control)+/−0.5 nM DHT for 48 h at 37° C. Fluorescent signals were read with the ImageXpress Micro Confocal System. Remaining activity (antagonist mode) was calculated as % Remaining Activity=100×[(ReadSample−LCave)/(HCave−LCave)] where HC is cells treated with 0.5 nM DHT only and LC is cells treated with 10 uM enzalutamide+0.5 nM DHT. Activation (agonist mode) was calculated as % Activation=100×[(ReadSample−LCave)/(HCave−LCave)] where HO is cells treated with 1 uM DHT and LC is cells treated with DMSO. Dose response curves and IC50 values were calculated using non-linear regression analysis in XLfit.
The designation “A” indicates an IC50 value of >10 μM, “B” indicates an IC50 value between 1 μM and 10 μM; “C” indicates an IC50 value between 100 nM and 1 μM; and “D” indicates an IC50 value of less than 100 nM.

Q: How did the IC50 turn out when COCCN(C(=O)c1cc2ccc(F)cc2[nH]1)c1ccccc1 [Example 12, 6-fluoro-N-(2-methoxyethyl)-N-phenyl-1H-indole-2-carboxamide] was run?
A: Its IC50 is 1000 to 10000 nM.

Q: Which IC50 does the source give for C[C@H]1COC[C@H]1NC(=O)c1cc2cccc(Cl)c2[nH]1 [Example 65, 7-chloro-N-[(3S,4R)-4-methyloxolan-3-yl]-1H-indole-2-carboxamide] here?
A: Its IC50 is 1000 to 10000 nM.

Q: With CNc1nccc2cc(C(=O)NC34CC(F)(C3)C4)n(C)c12 [Example 124, N-{3-fluorobicyclo[1.1.1]pentan-1-yl}-1-methyl-7-(methylamino)pyrrolo[2,3-c]pyridine-2-carboxamide] as the compound, how does the IC50 read?
A: The IC50 was greater than 10000 nM.

Q: For O=C(NC12CC(C1)C2)c1[nH]c2c(Cl)cccc2c1Cl [Example 106, N-[bicyclo[1.1.1]pentan-1-yl]-3,7-dichloro-1H-indole-2-carboxamide], which IC50 is on record?
A: The IC50 was 1000 to 10000 nM.

Q: Which IC50 does the source give for CC(C)N(C(=O)c1cc2ccc(F)cc2[nH]1)c1ccccc1 [Example 11, 6-fluoro-N-isopropyl-N-phenyl-1H-indole-2-carboxamide] here?
A: Its IC50 is 100 to 1000 nM.

Q: How did the IC50 turn out when CC(C)N(Cc1cnco1)C(=O)c1cc2cccc(C#N)c2[nH]1 [Example 66, 7-cyano-N-isopropyl-N-(1,3-oxazol-5-ylmethyl)-1H-indole-2-carboxamide] was run?
A: The IC50 was 1000 to 10000 nM.

Q: For CN(C(=O)c1cc2ccc(F)cc2[nH]1)c1ccncc1 [Example 15, 6-fluoro-N-methyl-N-(pyridin-4-yl)-1H-indole-2-carboxamide], which IC50 is on record?
A: The IC50 was greater than 10000 nM.

Q: With O=C(NC12CC(O)(C1)C2)c1cc2cccc(Cl)c2[nH]1 [Example 115, 7-chloro-N-[3-hydroxybicyclo[1.1.1]pentan-1-yl]-1H-indole-2-carboxamide] as the compound, how does the IC50 read?
A: The IC50 was greater than 10000 nM.

Q: For Cn1c(C(=O)NC23CC(C2)C3)cc2ccc(F)cc21 [Example 157, N-(bicyclo[1.1.1]pentan-1-yl)-6-fluoro-1-methyl-1H-indole-2-carboxamide], which IC50 is on record?
A: The IC50 was 1000 to 10000 nM.

Q: Which IC50 does the source give for CN(C(=O)c1cc2cccc(C(F)(F)F)c2[nH]1)c1ccc(C#N)cc1 [Example 27, N-(4-cyanophenyl)-N-methyl-7-(trifluoromethyl)-1H-indole-2-carboxamide] here?
A: Its IC50 is 1000 to 10000 nM.

Q: For CN(CC1CCCC1)C(=O)c1cc2cccc(Cl)c2[nH]1 [Example 70, 7-Chloro-N-(cyclopentylmethyl)-N-methyl-1H-indole-2-carboxamide], which IC50 is on record?
A: The IC50 was 1000 to 10000 nM.

Q: For C[Si](C)(C)CCOCn1c(C(=O)NC23CC(O)(C2)C3)cc2cccc(Cl)c21 [Example 88, 7-chloro-N-(3-hydroxybicyclo[1.1.1]pentan-1-yl)-1-((2-(trimethylsilyl)ethoxy)methyl)-1H-indole-2-carboxamide], which IC50 is on record?
A: Its IC50 is 1000 to 10000 nM.

Q: CCn1c(C(=O)NC23CC(F)(C2)C3)cc2ccnc(Cl)c21 [Example 111, 7-chloro-1-ethyl-N-[3-fluorobicyclo[1.1.1]pentan-1-yl]pyrrolo[2,3-c]pyridine-2-carboxamide] was tested. Which IC50 did it give?
A: Its IC50 is less than 100 nM.

Q: With CN(C(=O)c1cc2ccc(F)cc2[nH]1)c1ccccc1 [Example 59, 6-fluoro-N-methyl-N-phenyl-1H-indole-2-carboxamide] as the compound, how does the IC50 read?
A: Its IC50 is 100 to 1000 nM.

Q: CN(C(=O)c1cc2cccc(C#N)c2[nH]1)c1ccccc1 [Example 21, 7-cyano-N-methyl-N-phenyl-1H-indole-2-carboxamide] was tested. Which IC50 did it give?
A: Its IC50 is 100 to 1000 nM.

Q: How did the IC50 turn out when CN(C(=O)c1cc2cccc(C#N)c2[nH]1)C12CC(C1)C2 [Example 94, N-[bicyclo[1.1.1]pentan-1-yl]-7-cyano-N-methyl-1H-indole-2-carboxamide] was run?
A: The IC50 was 1000 to 10000 nM.

Q: N#Cc1cccc2cc(C(=O)N(c3ccc(F)cc3)C3CCOC3)[nH]c12 (stereo not shown) [Example 84, 7-cyano-N-(4-fluorophenyl)-N-(oxolan-3-yl)-1H-indole-2-carboxamide] was tested. Which IC50 did it give?
A: Its IC50 is 100 to 1000 nM.

Q: O=C(NC12CC(C1)C2)c1[nH]c2c(Cl)cccc2c1C1CC1 [Example 105, N-[bicyclo[1.1.1]pentan-1-yl]-7-chloro-3-cyclopropyl-1H-indole-2-carboxamide] was tested. Which IC50 did it give?
A: The IC50 was 1000 to 10000 nM.

Q: For CN(C(=O)c1cc2ccc(F)cc2o1)c1ccccc1 [Example 24, 6-fluoro-N-methyl-N-phenyl-1-benzofuran-2-carboxamide], which IC50 is on record?
A: Its IC50 is 1000 to 10000 nM.

Q: With CN(C(=O)c1cc2cccc(C#N)c2o1)c1ccc(F)cc1 [Example 34, 7-cyano-N-(4-fluorophenyl)-N-methyl-1-benzofuran-2-carboxamide] as the compound, how does the IC50 read?
A: Its IC50 is greater than 10000 nM.

Q: Which IC50 does the source give for COCCNC(=O)c1cc2ccc(F)cc2n1-c1ccc(C#N)cn1 [Example 52, 1-(5-cyanopyridin-2-yl)-6-fluoro-N-(2-methoxyethyl)-1H-indole-2-carboxamide] here?
A: The IC50 was greater than 10000 nM.

Q: How did the IC50 turn out when CN(C(=O)c1cc2ccnc(Cl)c2[nH]1)C1CC(F)(F)C1 [Example 101, 7-chloro-N-(3,3-difluorocyclobutyl)-N-methyl-1H-pyrrolo[2,3-c]pyridine-2-carboxamide] was run?
A: The IC50 was 1000 to 10000 nM.

Q: With COCCN(C(=O)c1cc2ccc(F)cc2[nH]1)c1ccc(Cl)cn1 [Example 160] as the compound, how does the IC50 read?
A: The IC50 was 1000 to 10000 nM.

Q: How did the IC50 turn out when N#Cc1ccc(NC(=O)c2cc3cccc(Cl)c3[nH]2)cc1 [Example 68, 7-chloro-N-(4-cyanophenyl)-1H-indole-2-carboxamide] was run?
A: Its IC50 is 1000 to 10000 nM.

Q: O=C(NC1CCCC1)c1cc2cccc(Cl)c2[nH]1 [Example 69, 7-chloro-N-cyclopentyl-1H-indole-2-carboxamide] was tested. Which IC50 did it give?
A: Its IC50 is greater than 10000 nM.

Q: Which IC50 does the source give for N#Cc1cccc2cc(C(=O)N(CC3CC3)c3ccccn3)[nH]c12 [Example 60, 7-((I1-azaneyl)ethynyl)-N-(cyclopropylmethyl)-N-(pyridin-2-yl)-1H-indole-2-carboxamide] here?
A: Its IC50 is greater than 10000 nM.

Q: Which IC50 does the source give for CN(C(=O)c1nc2ccc(F)cc2[nH]1)c1ccccc1 [Example 23, 5-fluoro-N-methyl-N-phenyl-3H-1,3-benzodiazole-2-carboxamide] here?
A: The IC50 was greater than 10000 nM.

Q: With O=C(NC12CC(F)(C1)C2)c1cc2ccnc(OC3CC3)c2[nH]1 [Example 122, 7-cyclopropoxy-N-{3-fluorobicyclo[1.1.1]pentan-1-yl}-1H-pyrrolo[2,3-c]pyridine-2-carboxamide] as the compound, how does the IC50 read?
A: Its IC50 is greater than 10000 nM.

Q: C[C@@H]1COC[C@H]1NC(=O)c1cc2cccc(Cl)c2[nH]1 [Example 64, 7-chloro-N-[(3S,4S)-4-methyloxolan-3-yl]-1H-indole-2-carboxamide] was tested. Which IC50 did it give?
A: The IC50 was 1000 to 10000 nM.

Q: CN(C(=O)c1[nH]c2ccccc2c1Cl)c1ccccc1 [Example 22, 3-chloro-N-methyl-N-phenyl-1H-indole-2-carboxamide] was tested. Which IC50 did it give?
A: Its IC50 is greater than 10000 nM.

Q: For Cc1c(C(=O)NC23CC(C2)C3)[nH]c2c(Cl)cccc12 [Example 102, N-[bicyclo[1.1.1]pentan-1-yl]-7-chloro-3-methyl-1H-indole-2-carboxamide], which IC50 is on record?
A: Its IC50 is 100 to 1000 nM.

Q: Which IC50 does the source give for CN(C(=O)c1cc2cccc(Cl)c2[nH]1)C1CCNCC1 [Example 43, 7-chloro-N-methyl-N-(piperidin-4-yl)-1H-indole-2-carboxamide] here?
A: The IC50 was greater than 10000 nM.

Q: O=C(c1cc2cccc(Cl)c2[nH]1)N1CCCC1 [Example 71, 7-chloro-2-(pyrrolidine-1-carbonyl)-1H-indole] was tested. Which IC50 did it give?
A: Its IC50 is greater than 10000 nM.

Q: With CN(C(=O)c1cc2cccc(Cl)c2[nH]1)C1CCOCC1 [Example 72, 7-chloro-N-methyl-N-(oxan-4-yl)-1H-indole-2-carboxamide] as the compound, how does the IC50 read?
A: The IC50 was greater than 10000 nM.

Q: Which IC50 does the source give for Cc1nccc2cc(C(=O)NC34CC(F)(C3)C4)n(C)c12 [Example 130, N-{3-fluorobicyclo[1.1.1]pentan-1-yl}-1,7-dimethylpyrrolo[2,3-c]pyridine-2-carboxamide] here?
A: Its IC50 is 1000 to 10000 nM.

Q: CN(C(=O)c1cc2cccc(C(F)(F)F)c2[nH]1)c1ccccc1 [Example 25, N-methyl-N-phenyl-7-(trifluoromethyl)-1H-indole-2-carboxamide] was tested. Which IC50 did it give?
A: The IC50 was 100 to 1000 nM.

Q: CN(C(=O)c1cc2ccc(F)cc2[nH]1)c1cccc(C#N)c1 [Example 16, N-(3-cyanophenyl)-6-fluoro-N-methyl-1H-indole-2-carboxamide] was tested. Which IC50 did it give?
A: Its IC50 is greater than 10000 nM.

Q: For COCCNC(=O)c1cc2ccc(F)cc2n1-c1ncccn1 [Example 54, 6-fluoro-N-(2-methoxyethyl)-1-(pyrimidin-2-yl)-1H-indole-2-carboxamide], which IC50 is on record?
A: Its IC50 is greater than 10000 nM.

Q: How did the IC50 turn out when Cn1c(C(=O)NC2(C)CCC2)cc2ccnc(Cl)c21 [Example 147, 7-chloro-1-methyl-N-(1-methylcyclobutyl)pyrrolo[2,3-c]pyridine-2-carboxamide] was run?
A: The IC50 was 100 to 1000 nM.

Q: For CC(C)N(C)C(=O)c1cc2ccnc(Cl)c2n1C [Example 134, 7-chloro-N-isopropyl-N,1-dimethylpyrrolo[2,3-c]pyridine-2-carboxamide], which IC50 is on record?
A: Its IC50 is 100 to 1000 nM.

Q: For C[C@@H]1OCC[C@@H]1NC(=O)c1cc2cccc(Cl)c2[nH]1 [Example 62, 7-chloro-N-[(2S,3S)-2-methyloxolan-3-yl]-1H-indole-2-carboxamide], which IC50 is on record?
A: Its IC50 is 1000 to 10000 nM.

Q: CC(C)N1CCCC(N(C)C(=O)c2cc3cccc(Cl)c3[nH]2)C1 (stereo not shown) [Example 44, 7-chloro-N-(1-isopropylpiperidin-3-yl)-N-methyl-1H-indole-2-carboxamide] was tested. Which IC50 did it give?
A: Its IC50 is greater than 10000 nM.

Q: How did the IC50 turn out when COCCN(C(=O)c1cc2ccc(F)cc2[nH]1)c1ncccn1 [Example 161] was run?
A: The IC50 was 1000 to 10000 nM.

Q: CN(C(=O)c1cc2ccnc(Cl)c2[nH]1)C12CC(C1)C2 [Example 95, N-[bicyclo[1.1.1]pentan-1-yl]-7-chloro-N-methyl-1H-pyrrolo[2,3-c]pyridine-2-carboxamide] was tested. Which IC50 did it give?
A: The IC50 was 100 to 1000 nM.

Q: Cc1c(C(=O)NC23CC(F)(C2)C3)n(C)c2c(Cl)nccc12 [Example 129, 7-chloro-N-{3-fluorobicyclo[1.1.1]pentan-1-yl}-1,3-dimethylpyrrolo[2,3-c]pyridine-2-carboxamide] was tested. Which IC50 did it give?
A: The IC50 was greater than 10000 nM.

Q: Which IC50 does the source give for CC(C)N(Cc1ncco1)C(=O)c1cc2ccc(F)cc2[nH]1 [Example 2, 6-fluoro-N-isopropyl-N-(1,3-oxazol-2-ylmethyl)-1H-indole-2-carboxamide] here?
A: The IC50 was greater than 10000 nM.
